Source: PubChem BioAssay (NCI)
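These data come from cells grown in 96-well plates and exposed to compound for 48 hours at five concentrations. GI50 = concentration required for 50% inhibition of growth. TGI: total growth inhibition.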

What was measured:
Experiment in all cases: DTP human tumour cell line panel, 48 h
OVCAR-5 ovarian = tested on: OVCAR-5 ovarian
KM12 colon = tested on: KM12 colon
T-47D breast = tested on: T-47D breast
SK-MEL-2 melanoma = tested on: SK-MEL-2 melanoma
SF-295 CNS = tested on: SF-295 CNS
M14 melanoma = tested on: M14 melanoma
A498 renal = tested on: A498 renal
OVCAR-8 ovarian = tested on: OVCAR-8 ovarian
HCT-116 colon = tested on: HCT-116 colon
HOP-62 NSCLC = tested on: HOP-62 NSCLC
SN12C renal = tested on: SN12C renal
SK-OV-3 ovarian = tested on: SK-OV-3 ovarian
NCI-H226 lung = tested on: NCI-H226 lung
MCF7 breast = tested on: MCF7 breast
HL-60(TB) leukemia = tested on: HL-60(TB) leukemia
U251 CNS = tested on: U251 CNS
UACC-62 melanoma = tested on: UACC-62 melanoma
A549 NSCLC = tested on: A549 NSCLC
RXF 393 renal = tested on: RXF 393 renal
SW-620 colon = tested on: SW-620 colon
SK-MEL-28 melanoma = tested on: SK-MEL-28 melanoma
CAKI-1 renal = tested on: CAKI-1 renal
UO-31 renal = tested on: UO-31 renal
HOP-92 NSCLC = tested on: HOP-92 NSCLC
SF-268 CNS = tested on: SF-268 CNS
SNB-75 CNS = tested on: SNB-75 CNS
MALME-3M melanoma = tested on: MALME-3M melanoma
SK-MEL-5 melanoma = tested on: SK-MEL-5 melanoma
OVCAR-3 ovarian = tested on: OVCAR-3 ovarian
SF-539 CNS = tested on: SF-539 CNS
LOX IMVI melanoma = tested on: LOX IMVI melanoma
MDA-MB-231 breast = tested on: MDA-MB-231 breast
COLO 205 colon = tested on: COLO 205 colon
HS 578T breast = tested on: HS 578T breast
PC-3 prostate = tested on: PC-3 prostate
ACHN renal = tested on: ACHN renal
MOLT-4 leukemia = tested on: MOLT-4 leukemia
EKVX NSCLC = tested on: EKVX NSCLC
HCC-2998 colon = tested on: HCC-2998 colon
NCI-H460 lung = tested on: NCI-H460 lung
IGROV1 ovarian = tested on: IGROV1 ovarian
HT29 colon = tested on: HT29 colon
NCI-H522 lung = tested on: NCI-H522 lung
CCRF-CEM leukemia = tested on: CCRF-CEM leukemia
TK-10 renal = tested on: TK-10 renal
DU-145 prostate = tested on: DU-145 prostate
SNB-19 CNS = tested on: SNB-19 CNS
OVCAR-4 ovarian = tested on: OVCAR-4 ovarian
RPMI-8226 leukemia = tested on: RPMI-8226 leukemia
K-562 leukemia = tested on: K-562 leukemia
HCT-15 colon = tested on: HCT-15 colon
NCI-H23 lung = tested on: NCI-H23 lung
MDA-MB-435 = tested on: MDA-MB-435
UACC-257 melanoma = tested on: UACC-257 melanoma
BT-549 breast = tested on: BT-549 breast

## NCCOc1ncccc1/C=C1\C2C=CC=CC2C2C=CC(F)=CC12 (stereo not given)
OVCAR-5 ovarian
  GI50: 1.69 µM
  TGI: 3.4 µM
KM12 colon
  GI50: 1.47 µM
  TGI: 2.97 µM
T-47D breast
  GI50: 2.07 µM
  TGI: 6.15 µM
SK-MEL-2 melanoma
  GI50: 2.03 µM
  TGI: 4.36 µM
SF-295 CNS
  GI50: 0.467 µM
  TGI: 1.81 µM
M14 melanoma
  GI50: 1.35 µM
  TGI: 3.05 µM
A498 renal
  GI50: 1.53 µM
  TGI: 3.49 µM
OVCAR-8 ovarian
  GI50: 1.19 µM
  TGI: 3.48 µM
HCT-116 colon
  GI50: 1.13 µM
  TGI: 2.6 µM
HOP-62 NSCLC
  GI50: 1.06 µM
  TGI: 2.68 µM
SN12C renal
  GI50: 0.333 µM
  TGI: 1.35 µM
SK-OV-3 ovarian
  GI50: 0.735 µM
  TGI: 2.33 µM
NCI-H226 lung
  GI50: 1.02 µM
  TGI: 2.47 µM
MCF7 breast
  GI50: 0.394 µM
  TGI: 1.73 µM
HL-60(TB) leukemia
  GI50: 0.334 µM
  TGI: 1.42 µM
U251 CNS
  GI50: 0.622 µM
  TGI: 2.06 µM
UACC-62 melanoma
  GI50: 1.36 µM
  TGI: 2.88 µM
A549 NSCLC
  GI50: 0.268 µM
  TGI: 2.04 µM
RXF 393 renal
  GI50: 1.57 µM
  TGI: 3.17 µM
SW-620 colon
  GI50: 1.07 µM
  TGI: 2.66 µM
SK-MEL-28 melanoma
  GI50: 1.51 µM
  TGI: 2.9 µM
CAKI-1 renal
  GI50: 0.429 µM
  TGI: 1.87 µM
UO-31 renal
  GI50: 1.31 µM
  TGI: 3.06 µM
HOP-92 NSCLC
  GI50: 0.258 µM
  TGI: 2.19 µM
SF-268 CNS
  GI50: 1.41 µM
  TGI: 11 µM
SNB-75 CNS
  GI50: 1.5 µM
  TGI: 5.67 µM
MALME-3M melanoma
  GI50: 1.42 µM
  TGI: 3.17 µM
SK-MEL-5 melanoma
  GI50: 1.47 µM
  TGI: 2.79 µM
OVCAR-3 ovarian
  GI50: 1.45 µM
  TGI: 2.77 µM
SF-539 CNS
  GI50: 1.31 µM
  TGI: 2.61 µM
LOX IMVI melanoma
  GI50: 0.583 µM
  TGI: 1.96 µM
MDA-MB-231 breast
  GI50: 1.64 µM
  TGI: 3.26 µM
COLO 205 colon
  GI50: 1.11 µM
  TGI: 2.63 µM
HS 578T breast
  GI50: 2.55 µM
  TGI: 13.1 µM
PC-3 prostate
  GI50: 1.15 µM
  TGI: 2.45 µM
ACHN renal
  GI50: 0.347 µM
  TGI: 1.4 µM
MOLT-4 leukemia
  GI50: 0.232 µM
  TGI: 1.1 µM
EKVX NSCLC
  GI50: 1.2 µM
  TGI: 3.05 µM
HCC-2998 colon
  GI50: 1.25 µM
  TGI: 2.57 µM
NCI-H460 lung
  GI50: 0.283 µM
  TGI: 1.46 µM
IGROV1 ovarian
  GI50: 1.16 µM
  TGI: 2.47 µM
HT29 colon
  GI50: 1.45 µM
  TGI: 3.29 µM
NCI-H522 lung
  GI50: 1.69 µM
  TGI: 4.09 µM
CCRF-CEM leukemia
  GI50: 0.26 µM
  TGI: 5.08 µM
TK-10 renal
  GI50: 1.96 µM
  TGI: 4.31 µM
DU-145 prostate
  GI50: 0.531 µM
  TGI: 1.99 µM
SNB-19 CNS
  GI50: 0.816 µM
  TGI: 14.1 µM
OVCAR-4 ovarian
  GI50: 2.7 µM
  TGI: 10.1 µM
RPMI-8226 leukemia
  GI50: 1.58 µM
  TGI: 3.85 µM
K-562 leukemia
  GI50: 1.01 µM
  TGI: 3.13 µM
HCT-15 colon
  GI50: 0.757 µM
  TGI: 2.28 µM
NCI-H23 lung
  GI50: 0.666 µM
  TGI: 3.01 µM
MDA-MB-435
  GI50: 1.81 µM
  TGI: 3.35 µM
UACC-257 melanoma
  GI50: 1.76 µM
  TGI: 3.86 µM
BT-549 breast
  GI50: 2.64 µM
  TGI: 10.8 µM
